This passage reports IC50 results from patent US8729075B2, “Glucosylceramide synthase inhibition for the treatment of collapsing glomerulopathy and other glomerular disease” (Genzyme Corporation, priority 2008, dated 2014).

The structures appear in SMILES notation. Like-named read-outs stand apart in the source and are kept apart here.

For the experiment, the system named is GM3. The experiment is described as follows: GM3 Elisa assay. Format: cell-based. The following applies: B16-FO cells, 2 days incubation, read-out: IC50_uM_Mean. The method, then: B16-FO cells from ATCC (American Tissue Culture Collection) were grown in DMEM media (ATCC) with 10% Fetal Bovine Serum (Hyclone) and Pen/Step/Glutamine (Biowhittaker). 4000 cells per well were plated on collagen coated plates (BD) and allowed to attach for 6 hours in an incubator (37 degrees, 5% CO2). After 6 hours the compounds and controls were added to the wells, the plates mixed and returned to the incubator for 2 days. Day of assay the cells were fixed for 20 minutes with 1% formaldehyde and then washed with Tris Buffered Saline (TBS) 3 times, 150 μl of TBS was left in the wells and 50 μl of goat serum (Invitrogen) was added, the plates mixed and incubated for 1 hour at room temperature. The plates were flicked and the cells incubated with the monoclonal Antibody to GM3 (NeuAc) (Cosmo) for 45 minutes as room temperature. The plates were then washed 3 times with TBS, leaving 150 μl of TBS in the wells and Peroxidase AffinPure F (ab′) 2 frag Gt Anti-mouse IgM, μ Chain Specific (Jackson Immno Research) was added in 50 μl, the plates mixed and incubated for 45 minutes at room temperature. The plates were washed 3 times with TBS, flicked and blotted and 100 μl of Quantablu (Pierce) was added to the wells and incubated for 1 hour then read on a Fluorometer at Ex 325 and Em 420. The data was then analyzed using standard programs.

As to `COC[C@H]1CCCN1C[C@@H](NC(=O)CCOc1ccc(OC)cc1)[C@H](O)c1ccc2c(c1)OCCO2` [Compound 538], under “48 h, Table 3”, the IC50 fell in the range of 3 to 10 µM.
For the molecule `Cc1nccn1C[C@@H](NC(=O)CCCCCC(=O)c1ccc(F)cc1)[C@H](O)c1ccc2c(c1)OCCO2` [Compound 569], the IC50 (48 h, Table 3) lay within 3 to 10 µM.
As for `O=C(CCCCCC1CCOCC1)N[C@H](CN1CC[C@@H](F)C1)[C@H](O)c1cccc(OCc2ccccc2)c1` [Compound 574], the IC50 (48 h, Table 3) lay in the range of 0.1 to 1 µM.
Take `COc1ccc([C@@H](O)[C@@H](CN2CCCC2)NC(=O)CCCCCC(C)=O)cc1` [Compound 664]: the IC50 (48 h, Table 3) was in the range of 1 to 3 µM.
Regarding `COc1ccc(OCCC(=O)N[C@@H](CN2CCCC2)[C@@H](O)c2ccc3c(c2)OCCO3)cc1` [Compound 674], the IC50 (48 h, Table 3) was in the range of 3 to 10 µM.
As for `COc1ccc(C(=O)CCCCC(=O)NC(CN2CCCC2)[C@H](O)c2ccc(OCCC3CCCCC3)cc2)cc1` (stereo partly shown) [Compound 419], the IC50 (48 h, Table 3) is at most 0.1 µM.
The same measure, in the same setting: as for `COc1ccc(OCCC(=O)N[C@@H](CN2CCCC2)[C@H](O)c2ccc3c(c2)OCCO3)cc1` [Compound 675], the figure is 3 to 10 µM; as for `COc1ccc(C(=O)CCCCCC(=O)N[C@H](CNC(C)C)[C@@H](O)c2ccc3c(c2)OCCO3)cc1` [Compound 465], 0.1 to 1 µM; as for `COCOc1ccc(C(=O)CCCC(=O)N[C@H](CN2CC[C@H](O)C2)[C@H](O)c2ccc(OC(C)C)cc2)cc1` [Compound 737], 0.1 to 1 µM.
For `COC(=O)CO[C@H](c1ccc2c(c1)OCO2)[C@@H](CN1CCCC1)NC(=O)CCOc1ccc(OC)cc1` [Compound 275], the IC50 (48 h, Table 2) is at most 0.1 µM.
As to `COc1ccc(OCCC(=O)N[C@H](CN2C(C)CCCC2C)[C@@H](O)c2ccc3c(c2)OCCO3)cc1` (stereo partly shown) [Compound 598], the IC50 (48 h, Table 3) is 3 to 10 µM.
As to `CCCNC[C@@H](NC(=O)CCCCCC(=O)c1ccc(OC)cc1)[C@H](O)c1ccc2c(c1)OCCO2` [Compound 467], the IC50 (48 h, Table 3) lay in the range of 0.1 to 1 µM.
Take `CCCCCCCC(=O)N[C@H](CN1CCC[C@@H]1C)[C@H](O)c1ccc2c(c1)OCCO2` [Compound 527]: the IC50 (48 h, Table 3) lay within 1 to 3 µM.
As to `COC[C@@H]1CCCN1CC(NC(=O)CCCCCC(=O)c1ccc(OC)cc1)[C@@H](O)c1ccc2c(c1)OCCO2` (stereo partly shown) [Compound 533], the IC50 (48 h, Table 3) was in the range of 0.1 to 1 µM.
On the same count and under the same terms, to `COc1ccc(C(=O)CCCCCC(=O)NC(CN2[C@H](C)CC[C@H]2C)[C@H](O)c2ccc3c(c2)OCCO3)cc1` (stereo partly shown) [Compound 548] belongs 1 to 3 µM; to `COc1ccc(CCCCN(C(=O)CCCCC(=O)c2ccc(OC)cc2)[C@H](CN2CCCC2)[C@H](O)c2ccc(O)cc2)cc1` [Compound 429], 3 to 10 µM.
For `COc1ccc(OCCC(=O)N[C@H](CN2CCC[C@H]2C)[C@H](O)c2ccc3c(c2)OCCO3)cc1` [Compound 528], the IC50 (48 h, Table 3) was 1 to 3 µM.
Take `N#CCCCCCC(=O)C[C@H](CN1CCCC1)[C@H](O)c1ccc2c(c1)OCCO2` [Compound 632]: for the setting “48 h, Table 3”, the IC50 lay in the range of 3 to 10 µM.
`CCCCCCCCCCCCCCCC(=O)N[C@H](CN(C)Cc1ccccc1)[C@@H](O)c1ccc2c(c1)OCCO2` [Compound 682]: the IC50 (48 h, Table 3) lay in the range of 3 to 10 µM.
Still for that read-out and setting: as for `COc1ccc(OCCC(=O)NC(CN2[C@H](C)CC[C@H]2C)[C@H](O)c2ccc3c(c2)OCCO3)cc1` (stereo partly shown) [Compound 550], the figure is 3 to 10 µM; as for `Cc1noc(CCCCC(=O)N[C@@H](CC2CCCC2)[C@H](O)c2ccc3c(c2)OCCO3)n1` [Compound 652], 3 to 10 µM.
Regarding `CCCCOc1ccc([C@@H](O)[C@@H](CN2CC[C@@H](O)C2)NC(=O)CCCCCOCCF)cc1` [Compound 661], under “48 h, Table 3”, the IC50 fell in the range of 1 to 3 µM.
For `Cc1ccc(C(=O)CCC(=O)N[C@H](CC2CCCC2)[C@H](O)c2ccc3c(c2)CCCC3)cc1` [Compound 264], for the setting “48 h, Table 2”, the IC50 is at most 0.1 µM.
Turning to `COc1ccc(OCCC(=O)N[C@H](CN2CCC[C@@H]2C)[C@H](O)c2ccc3c(c2)OCCO3)cc1` [Compound 526], the IC50 (48 h, Table 3) lay within 0.1 to 1 µM.
Same read-out and setting: as for `O=C(CCCCOCC(F)(F)F)N[C@H](CN1CCCC1)[C@H](O)c1ccc(CCc2ccccc2)cc1` [Compound 647], the figure is 0.1 to 1 µM.
On to `CC(=O)CCc1ccc(OCCC(=O)N[C@H](CN2CCCC2)[C@H](O)c2ccc3c(c2)OCCO3)cc1` [Compound 193, N-((1R,2R)-1-(2,3-dihydrobenzo[b][1,4]dioxin-6-yl)-1-hydroxy-3-(pyrrolidin-1-yl)propan-2-yl)-3-(4-(3-oxobutyl)phenoxy)propanamide(2R,3R)-2,3-dihydroxysuccinate], for which, for the setting “Table 1”, the IC50 fell in the range of 0.1 to 1 µM.
For `CCCCCCCC(=O)N[C@H](CN1CCC(C)(C)C1)[C@@H](O)c1ccc2c(c1)OCCO2` [Compound 521], the IC50 (48 h, Table 3) lay in the range of 3 to 10 µM.
Regarding `COc1ccc(OCCC(=O)N[C@H](CN2CCCC2)[C@@H](O)c2ccc3c(c2)OCCO3)cc1` [Compound 676], where the note is “48 h, Table 3”, the IC50 lay within 3 to 10 µM.
For the molecule `COc1ccc(C(=O)CCCCCC(=O)N[C@H](CN2CCC(C)(C)C2)[C@@H](O)c2ccc3c(c2)OCCO3)cc1` [Compound 520], for the setting “48 h, Table 3”, the IC50 was in the range of 1 to 3 µM.
Take `COc1ccc(C(=O)CCCCCC(=O)N[C@H](CN2CCC[C@@H]2C)[C@H](O)c2ccc3c(c2)OCCO3)cc1` [Compound 525]: the IC50 (48 h, Table 3) was at most 0.1 µM.
Consider `COc1ccc(OCCC(=O)N[C@H](CN2CCCC2)[C@H](O)c2ccc3c(c2)OCCO3)cc1` [Compound 61, N-((1R,2R)-1-(2,3-dihydrobenzo[β][1,4]dioxin-6-yl)-1-hydroxy-3-(pyrrolidin-1-yl)propan-2-yl)-3-(4-methoxyphenoxy)propanamide], for which, for the setting “48 h, Table 1”, the IC50 is at most 0.1 µM.
In the case of `COc1ccc(C(=O)CCCCCC(=O)N[C@H](CN2CC[C@@H](O)C2)[C@@H](O)c2ccc3c(c2)OCCO3)cc1` [Compound 518], where the note is “48 h, Table 3”, the IC50 lay in the range of 0.1 to 1 µM.
Consider `CCCCCCCC(=O)NC(CN1[C@H](C)CC[C@H]1C)[C@H](O)c1ccc2c(c1)OCCO2` (stereo partly shown) [Compound 549], for which, for the setting “48 h, Table 3”, the IC50 lay in the range of 3 to 10 µM.
Take `COc1ccc(C(=O)CCCCCC(=O)N[C@H](CN2CCC[C@H]2C)[C@H](O)c2ccc3c(c2)OCCO3)cc1` [Compound 529]: the IC50 (48 h, Table 3) is at most 0.1 µM.
In the case of `CCCCOc1ccc([C@@H](O)[C@@H](CN2CC[C@@H](F)C2)NC(=O)CCCCCCCOC)cc1` [Compound 584], the IC50 (48 h, Table 3) lay within 0.1 to 1 µM.
Regarding `COCCOc1ccc(C(O)[C@@H](CN2CCCC2)NC(=O)CCCCC(=O)c2ccc(OC)cc2)cc1` (stereo partly shown) [Compound 417], the IC50 (48 h, Table 3) was at most 0.1 µM.
On to `O=C(CCCCS(=O)(=O)C12CC3CCCC(C1)C(C3)C2)N[C@H](CN1CCCC1)[C@@H](O)c1ccc2c(c1)OCCO2` (stereo partly shown) [Compound 560], for which the IC50 (48 h, Table 3) lay within 0.1 to 1 µM.
